What was measured:
Format in all cases: in vivo
[1] = tested on: Echinochloa crus-gali (ECHCG); test: Post-emergence herbicidal glasshouse test; settings: 250 g/ha, sprayed after 8 days cultivation, evaluated after 13 days
Protocol: (§1) Seeds of a variety of test species are sown in standard soil in pots Amaranthus pa/meri (AMAPA), Amaranthus retoflexus (AMARE), Echinochloa crus-gali (ECHCG), Ipomoea hederacea (IPOHE), Setaria faberi (SETFA). After cultivation for one day (pre-emergence) or after 8 days cultivation (post-emergence) under controlled conditions in a glasshouse (at 24/16° C., day/night; 14 hours light; 65% humidity), the plants are sprayed with an aqueous spray solution derived from the formulation of the technical active ingredient in acetone/water (50:50) solution containing 0.5% Tween 20 (polyoxyethelyene sorbitan monolaurate, CAS RN 9005-64-5). Compounds are applied at 250 g/ha unless otherwise stated. The test plants are then grown in a glasshouse under controlled conditions in a glasshouse (at 24/16° C., day/night; 14 hours light; 65% humidity) and watered twice daily. After 13 days for pre and post-emergence, the test is evaluated for the percentage damage caused to the plant. The biological activities are shown in the following table on a five-point scale (5=81-100%; 4=61-80%; 3=41-60%; 2=21-40%; 1=0-20%).

[2] = tested on: Amaranthus pa/meri (AMAPA); test: Post-emergence herbicidal glasshouse test; settings: 250 g/ha, sprayed after 8 days cultivation, evaluated after 13 days
Protocol: as §1

Setaria faberi (SETFA) [3] = test: Post-emergence herbicidal glasshouse test; settings: 250 g/ha, sprayed after 8 days cultivation, evaluated after 13 days
Protocol: as §1

[4] = tested on: Ipomoea hederacea (IPOHE); test: Post-emergence herbicidal glasshouse test; settings: 250 g/ha, sprayed after 8 days cultivation, evaluated after 13 days
Protocol: as §1

[5] = tested on: Amaranthus retoflexus (AMARE); test: Post-emergence herbicidal glasshouse test; settings: 250 g/ha, sprayed after 8 days cultivation, evaluated after 13 days
Protocol: as §1

[6] = tested on: Echinochloa crus-gali (ECHCG); test: Pre-emergence herbicidal glasshouse test; settings: 250 g/ha, sprayed after one day cultivation, evaluated after 13 days
Protocol: as §1

[7] = tested on: Amaranthus pa/meri (AMAPA); test: Pre-emergence herbicidal glasshouse test; settings: 250 g/ha, sprayed after one day cultivation, evaluated after 13 days
Protocol: as §1

Setaria faberi (SETFA) [8] = test: Pre-emergence herbicidal glasshouse test; settings: 250 g/ha, sprayed after one day cultivation, evaluated after 13 days
Protocol: as §1

[9] = tested on: Ipomoea hederacea (IPOHE); test: Pre-emergence herbicidal glasshouse test; settings: 250 g/ha, sprayed after one day cultivation, evaluated after 13 days
Protocol: as §1

[10] = tested on: Amaranthus retoflexus (AMARE); test: Pre-emergence herbicidal glasshouse test; settings: 250 g/ha, sprayed after one day cultivation, evaluated after 13 days
Protocol: as §1

Compound | percentage damage caused to the plant, ECHCG [1] | percentage damage caused to the plant, AMAPA [2] | percentage damage caused to the plant, SETFA (Setaria faberi (SETFA) [3]) | percentage damage caused to the plant, IPOHE [4] | percentage damage caused to the plant, AMARE [5] | percentage damage caused to the plant, ECHCG [6] | percentage damage caused to the plant, AMAPA [7] | percentage damage caused to the plant, SETFA (Setaria faberi (SETFA) [8]) | percentage damage caused to the plant, IPOHE [9] | percentage damage caused to the plant, AMARE [10]
CCOCCc1nc(C(F)(F)F)cn1Cc1ncc(Cl)cn1 [Compound 1.038] | 3 (3=41-60%) | 3 (3=41-60%) | 3 (3=41-60%) | 4 (4=61-80%) | 4 (4=61-80%) | 5 (5=81-100%) | 5 (5=81-100%) | 5 (5=81-100%) | 5 (5=81-100%) | 5 (5=81-100%)
CS(=O)(=O)CCc1nc(C(F)(F)F)cn1Cc1ncc(Cl)cn1 [Compound 1.048] | 1 (1=0-20%) | 4 (4=61-80%) | 1 (1=0-20%) | 4 (4=61-80%) | 4 (4=61-80%) | 1 (1=0-20%) | 4 (4=61-80%) | 1 (1=0-20%) | 5 (5=81-100%) | 5 (5=81-100%)
FC(F)(F)CCCc1nc(Cl)cn1Cc1ncc(Cl)cn1 [Compound 1.001, 5-chloro-2-[[4-chloro-2-(4,4,4-trifluorobutyl)imidazol-1-yl]methyl]pyrimidine] | 1 (1=0-20%) | 2 (2=21-40%) | 1 (1=0-20%) | 2 (2=21-40%) | 2 (2=21-40%) | 1 (1=0-20%) | 2 (2=21-40%) | 1 (1=0-20%) | 1 (1=0-20%) | 1 (1=0-20%)
CC(O)CCc1nc(C(F)(F)F)cn1Cc1ncc(Cl)cn1 (centres unmarked) [Compound 1.082] | 1 (1=0-20%) | 3 (3=41-60%) | 1 (1=0-20%) | 1 (1=0-20%) | 2 (2=21-40%) | 1 (1=0-20%) | 2 (2=21-40%) | 2 (2=21-40%) | 1 (1=0-20%) | 4 (4=61-80%)
CCCCc1nc(C(F)F)cn1Cc1ncc(Cl)cn1 [Compound 1.053, 2-[[2-butyl-4-(difluoromethyl)imidazol-1-yl]methyl]-5-chloro-pyrimidine] | 1 (1=0-20%) | 1 (1=0-20%) |  | 1 (1=0-20%) | 1 (1=0-20%) | 1 (1=0-20%) | 1 (1=0-20%) |  | 1 (1=0-20%) | 1 (1=0-20%)
CCCCc1nc(C=NOC)cn1Cc1ncc(Cl)cn1 (single isomer, unassigned) [Compound 1.076, 1-[2-butyl-1-[(5-chloropyrimidin-2-yl)methyl]imidazol-4-yl]-N-methoxy-methanimine] | 1 (1=0-20%) | 1 (1=0-20%) |  | 1 (1=0-20%) | 1 (1=0-20%) | 1 (1=0-20%) | 1 (1=0-20%) |  | 1 (1=0-20%) | 1 (1=0-20%)
CCCCCc1nc(C(F)(F)F)cn1Cc1ncc(Cl)cn1 [Compound 1.019] | 3 (3=41-60%) | 2 (2=21-40%) |  | 1 (1=0-20%) | 2 (2=21-40%) | 5 (5=81-100%) | 5 (5=81-100%) |  | 1 (1=0-20%) | 5 (5=81-100%)
FC(F)CCc1nc(C(F)(F)F)cn1Cc1ncc(Cl)cn1 [Compound 1.010, 5-chloro-2-[[2-(3,3-difluoropropyl)-4-(trifluoromethyl)-imidazol-1-yl]methyl]-pyrimidine] | 4 (4=61-80%) | 4 (4=61-80%) |  | 4 (4=61-80%) | 4 (4=61-80%) | 4 (4=61-80%) | 5 (5=81-100%) |  | 5 (5=81-100%) | 5 (5=81-100%)
CCCCc1nc(C(F)(F)F)cn1Cc1ccc(Cl)cn1 [Compound 1.081] | 1 (1=0-20%) | 3 (3=41-60%) |  | 2 (2=21-40%) | 3 (3=41-60%) | 1 (1=0-20%) | 2 (2=21-40%) |  | 1 (1=0-20%) | 2 (2=21-40%)
FC(F)(F)c1cn(Cc2ncc(Cl)cn2)c(CCCCl)n1 [Compound 1.051, 5-chloro-2-[[2-(3-chloropropyl)-4-(trifluoromethyl)imidazol-1-yl]methyl]pyrimidine] | 4 (4=61-80%) | 4 (4=61-80%) |  | 4 (4=61-80%) | 5 (5=81-100%) | 2 (2=21-40%) | 5 (5=81-100%) |  | 5 (5=81-100%) | 5 (5=81-100%)
CCCCCc1nc(C(F)(F)F)cn1Cc1ncc(C#N)cn1 [Compound 1.015] | 1 (1=0-20%) | 1 (1=0-20%) |  | 3 (3=41-60%) | 2 (2=21-40%) | 1 (1=0-20%) | 4 (4=61-80%) |  | 2 (2=21-40%) | 4 (4=61-80%)
CCCCc1nc(C(F)(F)F)cn1Cc1ncc(Cl)cc1F [Compound 1.058] | 4 (4=61-80%) | 3 (3=41-60%) |  | 4 (4=61-80%) | 4 (4=61-80%) | 5 (5=81-100%) | 5 (5=81-100%) |  | 5 (5=81-100%) | 5 (5=81-100%)
CCCc1nc(C(F)(F)F)cn1Cc1ncc(Cl)cn1 [Compound 1.042] | 1 (1=0-20%) | 3 (3=41-60%) |  | 3 (3=41-60%) | 3 (3=41-60%) | 1 (1=0-20%) | 4 (4=61-80%) |  | 4 (4=61-80%) | 4 (4=61-80%)
FC(F)(F)c1cn(Cc2ncc(Cl)cn2)c(CCC=NOCC2CC2)n1 (single isomer, unassigned) [Compound 1.006] | 1 (1=0-20%) | 3 (3=41-60%) |  | 2 (2=21-40%) | 3 (3=41-60%) | 1 (1=0-20%) | 2 (2=21-40%) |  | 1 (1=0-20%) | 5 (5=81-100%)
COCCc1nc(C(F)(F)F)cn1Cc1ncc(Cl)cn1 [Compound 1.018] | 1 (1=0-20%) | 2 (2=21-40%) |  | 3 (3=41-60%) | 2 (2=21-40%) | 1 (1=0-20%) | 4 (4=61-80%) |  | 4 (4=61-80%) | 5 (5=81-100%)

From patent US20260035359A1, “HERBICIDAL IMIDAZOLE COMPOUNDS” (SYNGENTA CROP PROTECTION AG, priority 2022, published 2026)
